Measurements reported in patent US20080213338A1, “IMPLANT STENT WITH A RETINOID FOR IMPROVED BIOCOMPATIBILITY” (priority 1997, published 2008).

Test system: pigmented rabbits
Experiment: Retinal plug implantation in vitrectomized rabbit eyes, histopathology (PAS stain) at 28 days
Format: in vivo
Conditions: polylactic acid plug containing 10% by weight retinoid, inserted into vitreous through sclera; intravitreal injection of 500,000 human RPE cells; 28 days after insertion
Description: Retinal plugs were manufactured from poly(D,L)lactic acid (PLA) with an intrinsic viscosity of 0.6 DL/G. The retinoid 6-[(4,4-dimethyl thiochroman-6-yl)ethynl]nicotinic acid (AGN190299) was mixed with polymer in a three-dimensional mixer. The mixture was then extruded at 85° C. into a homogeneous rod. The retinoid was incorporated into the polymeric plug at a concentration of 10%. […] A 0.5 mm hole was drilled into the distal end of the plug to allow for suture fixation to the sclera. Placebo plugs containing no retinoid were also manufactured to the same dimensions. The average weight of the plugs was 8 mg. All plugs were sterilized by gamma irradiation at l Mrad.
The rabbit eyes were vitrectomized and the retinal plugs with or without incorporated retinoid were inserted through a sclerotomy 3 mm posterior to the corneoscleral limbus. The plugs were then fixated with the suture used to close the sclerotomy. An intravitreal injection of 500,000 human RPE cells was given to simulate traction retinal detachment. The rabbits were sacrificed at 28 days and histopathology was done.
These observed results are shown in FIG. 7 for the placebo plug and in FIG. 8 for the plug 10 including the retinoid as hereinabove described.

For `CC1(C)CCSc2ccc(C#Cc3ccc(C(=O)O)cn3)cc21` [AGN190299, 6-[(4,4-dimethylthiochroman-6-yl)ethynyl]nicotinic acid], the “fibrous inflammation of the capsule surrounding the plug (histopathology, PAS stain)” value was “very little fibrous inflammation”.
